{"source": "patent US20230139445A1", "about": "“BACTERIAL CELLS WITH IMPROVED TOLERANCE TO DIACIDS” (priority 2016, published 2023)", "key": {"[1]": {"tested_on": "Escherichia coli K-12 MG1655", "assay": "Screening for tolerance in wild-type cells: growth in varying concentrations of neutralized diacid, Biolector", "assay_type": "cell-based", "conditions": "for tlag (lag time), mean / μ (growth rate), mean: neutralized with sodium hydroxide; for maximum measured concentration at which exponentially growing K-12 MG1655 can grow: neutralized diacid in M9+1% glucose", "experimental": "Escherichia coli K-12 MG1655 was grown overnight in M9 minimal medium+1% glucose and subcultured the following morning to an initial OD600 of 0.05 in M9+1% glucose. Cells were grown to mid-exponential phase (OD600 0.7-1.0) and were back-diluted with fresh medium to an OD600 of 0.7. The diluted cells were used to inoculate M9+1% glucose containing varying concentrations of glutaric acid or adipic acid which were neutralized to pH 7.0 with sodium hydroxide, and growth was measured in FlowerPlates in a Biolector microbioreactor system (m2p-labs) at 37° C. with 1000 rpm shaking. The culture volume in each well was 1.4 mL."}, "[2]": {"tested_on": "Escherichia coli K-12 MG1655 knockout mutants", "assay": "Growth Profiler growth screening of K-12 MG1655 single, double and triple knockout mutants in glutaric or adipic acid", "assay_type": "cell-based"}, "[3]": {"conditions": "strain MG1655, M9 + 23.8 g/L glutarate (neutralized)"}, "[4]": {"conditions": "strain MG1655, M9 + 47.5 g/L glutarate (neutralized)"}, "[5]": {"conditions": "strain MG1655 kgtP::kan, M9 + 23.8 g/L glutarate (neutralized)"}, "[6]": {"conditions": "strain MG1655 kgtP::kan, M9 + 47.5 g/L glutarate (neutralized)"}, "[7]": {"conditions": "strain MG1655 ΔkgtP nagC::kan, M9 + 23.8 g/L glutarate (neutralized)"}, "[8]": {"conditions": "strain MG1655 ΔkgtP nagC::kan, M9 + 47.5 g/L glutarate (neutralized)"}, "[9]": {"conditions": "strain MG1655 ΔkgtP proV::kan, M9 + 23.8 g/L glutarate (neutralized)"}, "[10]": {"conditions": "strain MG1655 ΔkgtP rnb::kan, M9 + 23.8 g/L glutarate (neutralized)"}, "[11]": {"conditions": "strain MG1655 ΔkgtP rnb::kan, M9 + 47.5 g/L glutarate (neutralized)"}, "[12]": {"conditions": "strain MG1655 ΔkgtP sspA::kan, M9 + 23.8 g/L glutarate (neutralized)"}, "[13]": {"conditions": "strain MG1655 ΔkgtP ΔproV nagC::kan, M9 + 23.8 g/L glutarate (neutralized)"}, "[14]": {"conditions": "strain MG1655 ΔkgtP ΔproV nagC::kan, M9 + 47.5 g/L glutarate (neutralized)"}, "[15]": {"conditions": "strain MG1655, M9 + 25 g/L adipate (neutralized)"}, "[16]": {"conditions": "strain MG1655, M9 + 50 g/L adipate (neutralized)"}, "[17]": {"conditions": "strain MG1655 kgtP::kan, M9 + 25 g/L adipate (neutralized)"}, "[18]": {"conditions": "strain MG1655 kgtP::kan, M9 + 50 g/L adipate (neutralized)"}, "[19]": {"conditions": "strain MG1655 ΔkgtP proV::kan, M9 + 25 g/L adipate (neutralized)"}, "[20]": {"conditions": "strain MG1655 ΔkgtP pstS::kan, M9 + 25 g/L adipate (neutralized)"}, "[21]": {"conditions": "strain MG1655 ΔkgtP pstS::kan, M9 + 50 g/L adipate (neutralized)"}, "[22]": {"conditions": "strain MG1655 ΔkgtP sspA::kan, M9 + 25 g/L adipate (neutralized)"}, "[23]": {"conditions": "strain MG1655 ΔkgtP ΔproV nagC::kan, M9 + 25 g/L adipate (neutralized)"}, "[24]": {"conditions": "strain MG1655 ΔkgtP ΔproV nagC::kan, M9 + 50 g/L adipate (neutralized)"}}, "note": "Values joined by “and” are separate entries in the source; they are usually repeats but may differ in a detail not shown here. Equal values may be shown once."}
{"smiles": "O=C(O)CCCC(=O)O", "note": "[glutaric acid]", "values": [{"measurement": "tlag (lag time), mean", "setting": "[1]; 10 g/L", "value": 2.0, "unit": "h"}, {"measurement": "μ (growth rate), mean", "setting": "[1]; 10 g/L, M9+1% glucose, 37° C", "value": 0.526, "unit": "h⁻¹"}, {"measurement": "tlag (lag time), mean", "setting": "[1]; 20 g/L", "value": 1.9, "unit": "h"}, {"measurement": "μ (growth rate), mean", "setting": "[1]; 20 g/L", "value": 0.377, "unit": "h⁻¹"}, {"measurement": "tlag (lag time), mean", "setting": "[1]; 30 g/L", "value": 0.6, "unit": "h"}, {"measurement": "μ (growth rate), mean", "setting": "[1]; 30 g/L", "value": 0.234, "unit": "h⁻¹"}, {"measurement": "tlag (lag time), mean", "setting": "[1]; 40 g/L", "value": 0.7, "unit": "h"}, {"measurement": "μ (growth rate), mean", "setting": "[1]; 40 g/L", "value": 0.132, "unit": "h⁻¹"}, {"measurement": "tlag (lag time), mean", "setting": "[1]; 50 g/L", "value": 15.9, "unit": "h"}, {"measurement": "μ (growth rate), mean", "setting": "[1]; 50 g/L", "value": 0.096, "unit": "h⁻¹"}, {"measurement": "μ (growth rate), mean", "setting": "[1]; 75 g/L", "value": 0.000, "unit": "h⁻¹"}, {"measurement": "maximum measured concentration at which exponentially growing K-12 MG1655 can grow", "setting": "[1]", "value": 50, "unit": "g/L"}, {"measurement": "mean growth rate μ", "setting": "[2]; [3]", "value": 0.466, "unit": "h⁻¹"}, {"measurement": "mean lag time tlag", "setting": "[2]; [3]", "value": 7.4, "unit": "h"}, {"measurement": "mean growth rate μ", "setting": "[2]; [4]", "value": 0.101, "unit": "h⁻¹"}, {"measurement": "mean lag time tlag", "setting": "[2]; [4]", "value": 21.8, "unit": "h"}, {"measurement": "mean growth rate μ", "setting": "[2]; [5]", "value": 0.487, "unit": "h⁻¹"}, {"measurement": "mean lag time tlag", "setting": "[2]; [5]", "value": 6.1, "unit": "h"}, {"measurement": "mean growth rate μ", "setting": "[2]; [6]", "value": 0.191, "unit": "h⁻¹"}, {"measurement": "mean lag time tlag", "setting": "[2]; [6]", "value": 13.5, "unit": "h"}, {"measurement": "mean growth rate μ", "setting": "[2]; [7]", "value": 0.491, "unit": "h⁻¹"}, {"measurement": "mean lag time tlag", "setting": "[2]; [7]", "value": 6.7, "unit": "h"}, {"measurement": "mean growth rate μ", "setting": "[2]; [8]", "value": 0.179, "unit": "h⁻¹"}, {"measurement": "mean lag time tlag", "setting": "[2]; [8]", "value": 15.0, "unit": "h"}, {"measurement": "mean growth rate μ", "setting": "[2]; [9]", "value": 0.520, "unit": "h⁻¹"}, {"measurement": "mean lag time tlag", "setting": "[2]; [9]", "value": 6.2, "unit": "h"}, {"measurement": "mean growth rate μ", "setting": "[2]; strain MG1655 ΔkgtP proV::kan, M9 + 47.5 g/L glutarate (neutralized)", "value": 0.251, "unit": "h⁻¹"}, {"measurement": "mean growth rate μ", "setting": "[2]; [10]", "value": 0.505, "unit": "h⁻¹"}, {"measurement": "mean lag time tlag", "setting": "[2]; [10]", "value": 6.3, "unit": "h"}, {"measurement": "mean growth rate μ", "setting": "[2]; [11]", "value": 0.183, "unit": "h⁻¹"}, {"measurement": "mean lag time tlag", "setting": "[2]; [11]", "value": 13.6, "unit": "h"}, {"measurement": "mean growth rate μ", "setting": "[2]; [12]", "value": 0.473, "unit": "h⁻¹"}, {"measurement": "mean lag time tlag", "setting": "[2]; [12]", "value": 6.1, "unit": "h"}, {"measurement": "mean lag time tlag", "setting": "[2]; strain MG1655 ΔkgtP sspA::kan, M9 + 47.5 g/L glutarate (neutralized)", "value": 12.2, "unit": "h"}, {"measurement": "mean growth rate μ", "setting": "[2]; [13]", "value": 0.541, "unit": "h⁻¹"}, {"measurement": "mean lag time tlag", "setting": "[2]; [13]", "value": 6.6, "unit": "h"}, {"measurement": "mean growth rate μ", "setting": "[2]; [14]", "value": 0.215, "unit": "h⁻¹"}, {"measurement": "mean lag time tlag", "setting": "[2]; [14]", "value": 14.0, "unit": "h"}]}
{"smiles": "O=C(O)CCCCC(=O)O", "note": "[adipic acid]", "values": [{"measurement": "tlag (lag time), mean", "setting": "[1]; 10 g/L", "value": 1.0, "unit": "h"}, {"measurement": "μ (growth rate), mean", "setting": "[1]; 10 g/L, M9+1% glucose, 37° C", "value": 0.575, "unit": "h⁻¹"}, {"measurement": "tlag (lag time), mean", "setting": "[1]; 20 g/L", "value": 1.3, "unit": "h"}, {"measurement": "μ (growth rate), mean", "setting": "[1]; 20 g/L", "value": 0.494, "unit": "h⁻¹"}, {"measurement": "tlag (lag time), mean", "setting": "[1]; 30 g/L", "value": 1.8, "unit": "h"}, {"measurement": "μ (growth rate), mean", "setting": "[1]; 30 g/L", "value": 0.367, "unit": "h⁻¹"}, {"measurement": "tlag (lag time), mean", "setting": "[1]; 40 g/L", "value": 4.0, "unit": "h"}, {"measurement": "μ (growth rate), mean", "setting": "[1]; 40 g/L", "value": 0.263, "unit": "h⁻¹"}, {"measurement": "tlag (lag time), mean", "setting": "[1]; 50 g/L", "value": 2.4, "unit": "h"}, {"measurement": "μ (growth rate), mean", "setting": "[1]; 50 g/L", "value": 0.120, "unit": "h⁻¹"}, {"measurement": "tlag (lag time), mean", "setting": "[1]; 75 g/L", "value": "27 h and 27.2 h"}, {"measurement": "μ (growth rate), mean", "setting": "[1]; 75 g/L", "value": 0.203, "unit": "h⁻¹"}, {"measurement": "μ (growth rate), mean", "setting": "[1]; 100 g/L", "value": 0.000, "unit": "h⁻¹"}, {"measurement": "maximum measured concentration at which exponentially growing K-12 MG1655 can grow", "setting": "[1]", "value": 75, "unit": "g/L"}, {"measurement": "mean growth rate μ", "setting": "[2]; [15]", "value": 0.467, "unit": "h⁻¹"}, {"measurement": "mean lag time tlag", "setting": "[2]; [15]", "value": 6.9, "unit": "h"}, {"measurement": "mean growth rate μ", "setting": "[2]; [16]", "value": 0.115, "unit": "h⁻¹"}, {"measurement": "mean lag time tlag", "setting": "[2]; [16]", "value": 25.7, "unit": "h"}, {"measurement": "mean growth rate μ", "setting": "[2]; [17]", "value": 0.534, "unit": "h⁻¹"}, {"measurement": "mean lag time tlag", "setting": "[2]; [17]", "value": 6.4, "unit": "h"}, {"measurement": "mean growth rate μ", "setting": "[2]; [18]", "value": 0.192, "unit": "h⁻¹"}, {"measurement": "mean lag time tlag", "setting": "[2]; [18]", "value": 17.5, "unit": "h"}, {"measurement": "mean growth rate μ", "setting": "[2]; [19]", "value": 0.583, "unit": "h⁻¹"}, {"measurement": "mean lag time tlag", "setting": "[2]; [19]", "value": 6.2, "unit": "h"}, {"measurement": "mean growth rate μ", "setting": "[2]; [20]", "value": 0.465, "unit": "h⁻¹"}, {"measurement": "mean lag time tlag", "setting": "[2]; [20]", "value": 7.6, "unit": "h"}, {"measurement": "mean growth rate μ", "setting": "[2]; [21]", "value": 0.139, "unit": "h⁻¹"}, {"measurement": "mean lag time tlag", "setting": "[2]; [21]", "value": 21.3, "unit": "h"}, {"measurement": "mean growth rate μ", "setting": "[2]; [22]", "value": 0.525, "unit": "h⁻¹"}, {"measurement": "mean lag time tlag", "setting": "[2]; [22]", "value": 6.8, "unit": "h"}, {"measurement": "mean lag time tlag", "setting": "[2]; strain MG1655 ΔkgtP sspA::kan, M9 + 50 g/L adipate (neutralized)", "value": 49.2, "unit": "h"}, {"measurement": "mean growth rate μ", "setting": "[2]; [23]", "value": 0.501, "unit": "h⁻¹"}, {"measurement": "mean lag time tlag", "setting": "[2]; [23]", "value": 6.8, "unit": "h"}, {"measurement": "mean growth rate μ", "setting": "[2]; [24]", "value": 0.213, "unit": "h⁻¹"}, {"measurement": "mean lag time tlag", "setting": "[2]; [24]", "value": 19.7, "unit": "h"}]}
